What was measured:
[1] = target: T1, acylpeptide hydrolase (ACPH) (Rattus norvegicus, UniProt P13676); assay: In vitro determination of the inhibition of ACPH; format: biochemical; details: rat brain homogenate; substrate 100 μM N-acetyl-methionyl-aminomethyl-coumarin; 30 min preincubation, 30 min reaction
T1 construct: 50 μl of brain homogenate and 100 μM N-acetyl-methionyl-aminomethyl-coumarin as the enzyme substrate; from tissue; host or cells: rat brain homogenate
T1 sequence (P13676 1-732): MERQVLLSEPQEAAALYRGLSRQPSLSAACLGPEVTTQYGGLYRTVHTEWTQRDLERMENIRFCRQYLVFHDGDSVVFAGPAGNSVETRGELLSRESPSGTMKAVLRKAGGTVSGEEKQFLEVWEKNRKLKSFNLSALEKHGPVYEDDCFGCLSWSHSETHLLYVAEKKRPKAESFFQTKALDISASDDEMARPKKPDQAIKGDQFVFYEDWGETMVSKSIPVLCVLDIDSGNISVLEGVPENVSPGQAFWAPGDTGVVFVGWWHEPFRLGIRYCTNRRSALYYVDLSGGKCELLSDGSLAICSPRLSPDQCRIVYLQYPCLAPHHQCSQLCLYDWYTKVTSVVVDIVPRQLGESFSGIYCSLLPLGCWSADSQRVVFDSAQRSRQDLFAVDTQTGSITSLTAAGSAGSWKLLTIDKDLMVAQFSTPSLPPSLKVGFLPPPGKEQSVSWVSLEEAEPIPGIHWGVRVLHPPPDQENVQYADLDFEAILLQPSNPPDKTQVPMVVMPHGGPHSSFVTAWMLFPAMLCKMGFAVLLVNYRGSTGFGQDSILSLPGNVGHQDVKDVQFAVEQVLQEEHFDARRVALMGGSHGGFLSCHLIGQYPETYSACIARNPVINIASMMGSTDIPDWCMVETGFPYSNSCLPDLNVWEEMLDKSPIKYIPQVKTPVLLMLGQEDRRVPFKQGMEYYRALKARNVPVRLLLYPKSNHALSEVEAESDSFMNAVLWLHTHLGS
Procedure: In vitro determination of the Inhibition of ACPH
In the standard experiment, rat brains are homogenized in a 10-fold volume (w/v) of 50 mM tris HCl buffer, 1 mM EDTA, 100 mM NaCl, 0.1% BSA, 1 mM DDT, pH 7.2. The protein concentration of the homogenate is adjusted to approximately 5 mg/ml by dilution with buffer. The incubation batch (110 μl) contains 40 μl of buffer, various test concentrations of the test substances to be tested in 10 μl of buffer, 50 μl of brain homogenate and 100 μM N-acetyl-methionyl-aminomethyl-coumarin as the enzyme substrate. Before addition of the substrate, the reaction mixture is preincubated at room temperature for 30 min. The enzyme reaction is started by substrate addition. The reaction time is 30 min. Afterwards, the samples are activated in a fluorimeter at 390 nm and determined quantitatively at 460 nm. The IC50 value is calculated from the enzyme activity in the presence of increasing concentrations of test substance in the test. For the measurement of the ACPH activity, purified enzyme from liver or other organs can also be used and also homogenates of other organs having ACPH activity, such as liver or erythrocytes.

| Structure (SMILES) | melting point [°C] | IC50 [1] [nM] |
| --- | --- | --- |
| CN(CCCl)C(=O)n1oc(=O)c2cc(Cl)ccc21 | 52 | – |
| O=C(N1CCC1)n1oc(=O)c2ccccc21 [Example 2] | 163 | – |
| O=C(N1CCCC1)n1oc(=O)c2c(F)cccc21 [Example 4] | 109 | 6 |
| CN(C)C(=O)n1oc(=O)c2ccccc21 [Example 5] | 93 | 18 |
| O=C(N1CCOCC1)n1oc(=O)c2ccc(Cl)cc21 [Example 10] | 116 | – |
| O=C(N1CC2CCC2C1)n1oc(=O)c2ccc(Cl)cc21 (centres unmarked) [Example 12] | 98 | – |
| O=C(N1CCOCC1)n1oc(=O)c2c(F)cccc21 [Example 14] | 141 | – |
| O=C(N1CC2CCC2C1)n1oc(=O)c2cc(Cl)ccc21 (centres unmarked) [Example 15] | 85 | – |

Other lines, results leading:

| melting point [°C] | IC50 [1] [nM] | Structure (SMILES) |
| --- | --- | --- |
| 99 | – | O=C(N1CCCC1)n1oc(=O)c2ccccc21 [Example 3] |
| 129 | 48 | Cc1ccc2c(c1)c(=O)on2C(=O)N1CCCC1 [Example 6] |
| 133 | 99 | O=C(N1CCCC1)n1oc(=O)c2cc(F)c(F)cc21 [Example 7] |
| 103 | – | O=C(N1CCCC1)n1oc(=O)c2cc(Cl)ccc21 [Example 8] |
| 153 | – | O=C(N1CCOCC1)n1oc(=O)c2cc(Cl)ccc21 [Example 19] |
